Data reported in PubChem BioAssay (NCI).
“And” between values parts separate entries of the source, which are not always exact repeats. Equal entries are not always repeated.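 48-hour exposure; five concentrations; linearly interpolated endpoints. At the GI50, growth is halved. TGI denotes the concentration required for complete inhibition of growth.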

Key:
Assay in all cases: NCI tumour cell line growth inhibition, 48 h
[1] = system: RXF-631 renal
[2] = system: HOP-18 NSCLC
[3] = system: LXFL 529 NSCLC
[4] = system: KM20L2 colon
[5] = system: XF 498 CNS
[6] = system: DU-145 prostate
[7] = system: T-47D breast
[8] = system: MCF7 breast
[9] = system: MDA-N

SMILES	TGI [1]	TGI [2]	TGI [3]	TGI [4]	TGI [5]	GI50 [6]	TGI [6]	GI50 [7]	TGI [7]	GI50 [8]	TGI [8]	GI50 [9]	TGI [9]
COc1ccc(C(=O)C(C(=O)CCC(=O)Nc2cccc(Cl)c2)c2ccc(OC)cc2)cc1 (configuration not stated)	> 100 µM	> 100 µM	> 100 µM	> 100 µM	> 100 µM								
Cc1cn(C2CC(O)C(CO)O2)c(=O)n2nnnc12 (configuration not stated)	> 100 µM	> 100 µM	> 100 µM										
Cc1nc(N)sc1C(=O)/C=C\c1ccc2c(c1)OCO2	> 100 µM	> 100 µM	> 100 µM	> 100 µM	> 100 µM								
O=C1C2C3C=C4c5ccccc5N(c5ccccc5)C4(C2C(=O)N1Cc1ccccc1)C1C(=O)N(Cc2ccccc2)C(=O)C31 (configuration not stated)	> 100 µM	> 100 µM	> 100 µM	> 100 µM	> 100 µM								
COc1cc(C(C)O)c[n+](CCc2c[nH]c3ccccc23)c1 (configuration not stated)	> 100 µM		> 100 µM	> 100 µM	> 100 µM								
NC(N)=N/N=C(\c1nc2ccc([N+](=O)[O-])cc2[nH]c1=O)C(O)c1ccc([N+](=O)[O-])cc1 (configuration not stated)	> 100 µM		> 100 µM	> 100 µM	> 100 µM								
CC(C)(C)c1ccc2c(c1)S(=O)(=O)Nc1ccccc1NS(=O)(=O)c1cc(C(C)(C)C)ccc1OCCOCCOCCO2	> 100 µM	> 100 µM											
CC1CC[C@]2(C(=O)O)CCC3(C)C(=CC(=O)C4[C@@]5(C)CCC(=O)C(C)(C)C5CC[C@]43C)[C@@H]2[C@H]1C (some centres not stated)	> 100 µM	94.6 µM	> 100 µM		29.5 µM								
Cn1c(=O)c(C(c2ccc([N+](=O)[O-])cc2)c2c(O)c3ccccc3n(C)c2=O)cc2ccccc21 (configuration not stated)	> 100 µM	> 100 µM	> 100 µM	> 100 µM	> 100 µM								
COc1cc2c(c(OC)c1OC)-c1ccc(OC)c(=O)cc1[C@@H](NC(=O)c1ccccc1)CC2	> 48.3 µM	> 100 µM	> 100 µM		3.86 µM	< 0.003 µM	0.0329 µM and 0.237 µM	> 30 µM	> 100 µM	< 0.003 µM	30 µM and > 7.65 µM	< 0.003 µM	< 0.003 µM
Cc1cccc(NC(=O)C(=O)C(C(=O)c2ccc3ccccc3c2)C2OC(=O)c3ccccc32)c1C (configuration not stated)	29.8 µM		22.4 µM	> 100 µM	9.47 µM								
Cc1ccc(C2=C(c3ccccc3)C(Br)(c3ccc(C)cc3)C(c3ccccc3)=C2c2ccc(C)cc2)cc1	> 100 µM	> 100 µM	> 100 µM	> 100 µM	> 100 µM								
CCOc1ccccc1NC(=O)CC(C(=O)OC)C(=O)C(=O)OC (configuration not stated)	> 100 µM	> 100 µM	> 100 µM	> 100 µM									
